Measurements as given in paper PMC12051030, “Identification of inhibitors of the Salmonella FraB deglycase, a drug target” (FEBS Open Bio, 2025).
Like-named read-outs stand apart in the source and are kept apart here.

Molecular target: His6‐FraB (Salmonella FraB deglycase) (Salmonella enterica subsp. enterica serovar Typhimurium, UniProt Q8ZLD0)
Assay: FraB-G6PD coupled assay, Michaelis–Menten analysis for K I and mode of inhibition
Assay type: biochemical
Conditions: for change of IC50 values with increasing [S]/K m: 'this trend' = IC50 does not vary with [S]/K m, change evident only from 0.2 to 1.6× [S]/K m; for slope in plots of 1/IC50 vs. v o/V max: Fig. S12; for K IU/K IC ratio: average (±SE), from 1/IC50 versus v o/V max plots; for mode of inhibition: kinetic analyses (Lineweaver‐Burk, α′ vs [I], IC50 vs [S]/K m, 1/IC50 vs v o/V max)
Protocol: To determine the K I of each inhibitor, 29 μL of master mix was added to two rows of a 384‐well Greiner plate, using a single‐channel pipette, and incubated at 20 °C for 20 min. A 12‐channel pipette was then used to transfer and mix 1 μL of varying [6‐P‐F‐Asp] to all 48 wells. The final reaction (30 μL) consisted of 25 mM HEPES pH 8.0 at 20 °C, 5 mM MgCl2, 0.1 mM EGTA, 0.5 mM NAD^+, 1 mU G6PD, 100 nM His6‐FraB, varying (6‐P‐F‐Asp) (between 8 and 12 concentrations), and varying [inhibitor] (between three and five concentrations) in 10% (v/v) DMSO. NADH fluorescence was monitored every 10 s for 10 min total on a SPARK® multi‐mode multiplate reader (Tecan), as described above, and plotted against time. Slopes of the linear range of each curve were converted to initial velocities, as described above, that were then plotted against [6‐P‐F‐Asp]. A hyperbolic curve was then fitted to the data to obtain the k cat and K m values according to the formula: v o = (V max × [S])/(K m + [S]).
To determine the correlation between the observed and expected initial velocities (Fig. S5A), these values were exported from Kaleidagraph, plotted against one another, and a curve was fit using the formula: y = mx + b. The differences between observed and expected initial velocities (residuals) were then depicted as box‐and‐whisker plots (Fig. S5B). Lineweaver‐Burk plots were generated by graphing 1/v o versus 1/[S] and curves were fit to the data with Kaleidagraph using the formula: 1/v o = (Km/V max).(1/[S]) + (1/V max). The k cat and K m parameters were then converted into α′ values by dividing the k cat of the control (no inhibitor) by either itself (α′= 1) or the k cat of test samples with variable [inhibitor]. Those α′ values were plotted against [inhibitor] and K I values were determined from the equation α = 1 + [I]/K I.
The initial velocities used to generate the Michaelis–Menten plots were also employed to obtain the IC50 vs [S]/K m plots. For a given [S], initial velocities were converted into relative activities and plotted versus [inhibitor]. […] The IC50 values determined from the IC50 vs [S]/K m plots were then used to plot 1/IC50 versus v o/V max. A curve was fit to the data using the formula: y = mx + b. The Y‐intercept of the 1/IC50 versus v o/V max plot is equal to 1/K IC, and the slope, for mixed inhibitors, is equal to 1/K IU – 1/K IC. […] Data analyses were performed as described above (see Tables S1–S7 for curve‐fit errors and goodness‐of‐fit values).

Sequence of His6‐FraB (Salmonella FraB deglycase) (Q8ZLD0 entry or part of it): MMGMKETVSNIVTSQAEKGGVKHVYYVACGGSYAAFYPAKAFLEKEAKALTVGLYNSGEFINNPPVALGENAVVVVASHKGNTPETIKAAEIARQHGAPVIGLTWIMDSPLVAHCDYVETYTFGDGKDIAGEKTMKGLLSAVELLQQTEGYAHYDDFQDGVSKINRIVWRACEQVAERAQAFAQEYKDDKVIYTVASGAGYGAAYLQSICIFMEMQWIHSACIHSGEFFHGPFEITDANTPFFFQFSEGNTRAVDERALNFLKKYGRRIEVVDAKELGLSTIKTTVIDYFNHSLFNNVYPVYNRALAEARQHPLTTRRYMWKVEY

Fc1ccc(-c2nn3c(-c4ccccn4)nnc3s2)cc1 [3469:N17, 6‐(4‐fluorophenyl)‐3‐pyridin‐2‐yl‐[1,2,4]triazolo[3,4‐b][1,3,4]thiadiazole]
change of IC50 values with increasing [S]/K m: modest decrease | slope in plots of 1/IC50 vs. v o/V max: weakly positive | IC50 (IC50 (IC50 versus [S]/Km plots), Trial 1, 6-P-F-Asp 7.38 µM, S/Km 0.175714, unit from Fig. S11 axis): 47.9 µM | IC50 (IC50 (IC50 versus [S]/Km plots), Trial 1, 6-P-F-Asp 15.7 µM, S/Km 0.37381, unit from Fig. S11 axis): 45.4 µM | IC50 (IC50 (IC50 versus [S]/Km plots), Trial 1, 6-P-F-Asp 31.3 µM, S/Km 0.745238, unit from Fig. S11 axis): 40.9 µM | IC50 (IC50 (IC50 versus [S]/Km plots), Trial 1, 6-P-F-Asp 62.5 µM, S/Km 1.488095, unit from Fig. S11 axis): 34.9 µM | IC50 (IC50 (IC50 versus [S]/Km plots), Trial 1, 6-P-F-Asp 125 µM, S/Km 2.97619, unit from Fig. S11 axis): 32.7 µM | IC50 (IC50 (IC50 versus [S]/Km plots), Trial 1, 6-P-F-Asp 250 µM, S/Km 5.952381, unit from Fig. S11 axis): 34.1 µM | IC50 (IC50 (IC50 versus [S]/Km plots), Trial 1, 6-P-F-Asp 500 µM, S/Km 11.90476, unit from Fig. S11 axis): 30.1 µM | IC50 (IC50 (IC50 versus [S]/Km plots), Trial 1, 6-P-F-Asp 750 µM, S/Km 17.85714, unit from Fig. S11 axis): 33.4 µM | IC50 (IC50 (IC50 versus [S]/Km plots), Trial 1, 6-P-F-Asp 1000 µM, S/Km 23.80952, unit from Fig. S11 axis): 32.7 µM | IC50 (IC50 (IC50 versus [S]/Km plots), Trial 1, 6-P-F-Asp 2000 µM, S/Km 47.61905, unit from Fig. S11 axis): 32.5 µM | IC50 (IC50 (IC50 versus [S]/Km plots), Trial 1, 6-P-F-Asp 3000 µM, S/Km 71.42857, unit from Fig. S11 axis): 39.3 µM | IC50 (IC50 (IC50 versus [S]/Km plots), Trial 2, 6-P-F-Asp 7.38 µM, S/Km 0.175714, unit from Fig. S11 axis): 36.6 µM | IC50 (IC50 (IC50 versus [S]/Km plots), Trial 2, 6-P-F-Asp 15.7 µM, S/Km 0.37381, unit from Fig. S11 axis): 44.8 µM | IC50 (IC50 (IC50 versus [S]/Km plots), Trial 2, 6-P-F-Asp 31.3 µM, S/Km 0.745238, unit from Fig. S11 axis): 48.2 µM | IC50 (IC50 (IC50 versus [S]/Km plots), Trial 2, 6-P-F-Asp 62.5 µM, S/Km 1.488095, unit from Fig. S11 axis): 48.5 µM | IC50 (IC50 (IC50 versus [S]/Km plots), Trial 2, 6-P-F-Asp 125 µM, S/Km 2.97619, unit from Fig. S11 axis): 37.7 µM | IC50 (IC50 (IC50 versus [S]/Km plots), Trial 2, 6-P-F-Asp 250 µM, S/Km 5.952381, unit from Fig. S11 axis): 34 µM | IC50 (IC50 (IC50 versus [S]/Km plots), Trial 2, 6-P-F-Asp 500 µM, S/Km 11.90476, unit from Fig. S11 axis): 32.9 µM | IC50 (IC50 (IC50 versus [S]/Km plots), Trial 2, 6-P-F-Asp 750 µM, S/Km 17.85714, unit from Fig. S11 axis): 35.9 µM | IC50 (IC50 (IC50 versus [S]/Km plots), Trial 2, 6-P-F-Asp 1000 µM, S/Km 23.80952, unit from Fig. S11 axis): 34.9 µM | IC50 (IC50 (IC50 versus [S]/Km plots), Trial 2, 6-P-F-Asp 2000 µM, S/Km 47.61905, unit from Fig. S11 axis): 39.2 µM | IC50 (IC50 (IC50 versus [S]/Km plots), Trial 2, 6-P-F-Asp 3000 µM, S/Km 71.42857, unit from Fig. S11 axis): 42.2 µM | IC50 (IC50, mean and standard deviation of all IC50 values in IC50 vs [S]/Km plot, trial shown in Fig. S11 panels M-X): 40 ± 6 µM | Ki (K I, from Michaelis–Menten analysis of FraB at different inhibitor concentrations, average and standard error from two measurements): 28.5 ± 3.5 µM | Ki (KI from α′ vs [I] plot, trial shown in Fig. S11 panels M-X): 25 µM | Ki (KI from α′ vs [I] plot, trial shown in Fig. S11 panels Y-AJ): 32 µM | K IU/K IC ratio: 0.7 ± 0.1 | mode of inhibition: mixed‐type uncompetitive

O=c1[nH][nH]c(=S)n1Cc1ccccc1 [1533:K12, 4‐benzyl‐5‐sulfanylidene‐1,2,4‐triazolidin‐3‐one]
change of IC50 values with increasing [S]/K m: modest decrease | slope in plots of 1/IC50 vs. v o/V max: weakly positive | IC50 (Trial 1, 6-P-F-Asp 7.38 µM, S/Km 0.175714, unit from Fig. S11 axis, read-out: IC50 (IC50 versus [S]/Km plots)): 26.2 µM | IC50 (Trial 1, 6-P-F-Asp 15.7 µM, S/Km 0.37381, unit from Fig. S11 axis, read-out: IC50 (IC50 versus [S]/Km plots)): 24.1 µM | IC50 (Trial 1, 6-P-F-Asp 31.3 µM, S/Km 0.745238, unit from Fig. S11 axis, read-out: IC50 (IC50 versus [S]/Km plots)): 18.5 µM | IC50 (Trial 1, 6-P-F-Asp 62.5 µM, S/Km 1.488095, unit from Fig. S11 axis, read-out: IC50 (IC50 versus [S]/Km plots)): 18.3 µM | IC50 (Trial 1, 6-P-F-Asp 125 µM, S/Km 2.97619, unit from Fig. S11 axis, read-out: IC50 (IC50 versus [S]/Km plots)): 18.1 µM | IC50 (Trial 1, 6-P-F-Asp 250 µM, S/Km 5.952381, unit from Fig. S11 axis, read-out: IC50 (IC50 versus [S]/Km plots)): 19.6 µM | IC50 (Trial 1, 6-P-F-Asp 500 µM, S/Km 11.90476, unit from Fig. S11 axis, read-out: IC50 (IC50 versus [S]/Km plots)): 18.7 µM | IC50 (Trial 1, 6-P-F-Asp 750 µM, S/Km 17.85714, unit from Fig. S11 axis, read-out: IC50 (IC50 versus [S]/Km plots)): 20.1 µM | IC50 (Trial 1, 6-P-F-Asp 1000 µM, S/Km 23.80952, unit from Fig. S11 axis, read-out: IC50 (IC50 versus [S]/Km plots)): 16.7 µM | IC50 (Trial 1, 6-P-F-Asp 2000 µM, S/Km 47.61905, unit from Fig. S11 axis, read-out: IC50 (IC50 versus [S]/Km plots)): 18.6 µM | IC50 (Trial 1, 6-P-F-Asp 3000 µM, S/Km 71.42857, unit from Fig. S11 axis, read-out: IC50 (IC50 versus [S]/Km plots)): 21.2 µM | IC50 (Trial 2, 6-P-F-Asp 7.38 µM, S/Km 0.175714, unit from Fig. S11 axis, read-out: IC50 (IC50 versus [S]/Km plots)): 24.9 µM | IC50 (Trial 2, 6-P-F-Asp 15.7 µM, S/Km 0.37381, unit from Fig. S11 axis, read-out: IC50 (IC50 versus [S]/Km plots)): 24.7 µM | IC50 (Trial 2, 6-P-F-Asp 31.3 µM, S/Km 0.745238, unit from Fig. S11 axis, read-out: IC50 (IC50 versus [S]/Km plots)): 26.5 µM | IC50 (Trial 2, 6-P-F-Asp 62.5 µM, S/Km 1.488095, unit from Fig. S11 axis, read-out: IC50 (IC50 versus [S]/Km plots)): 25.9 µM | IC50 (Trial 2, 6-P-F-Asp 125 µM, S/Km 2.97619, unit from Fig. S11 axis, read-out: IC50 (IC50 versus [S]/Km plots)): 24 µM | IC50 (Trial 2, 6-P-F-Asp 250 µM, S/Km 5.952381, unit from Fig. S11 axis, read-out: IC50 (IC50 versus [S]/Km plots)): 23.8 µM | IC50 (Trial 2, 6-P-F-Asp 500 µM, S/Km 11.90476, unit from Fig. S11 axis, read-out: IC50 (IC50 versus [S]/Km plots)): 21.8 µM | IC50 (Trial 2, 6-P-F-Asp 750 µM, S/Km 17.85714, unit from Fig. S11 axis, read-out: IC50 (IC50 versus [S]/Km plots)): 20.5 µM | IC50 (Trial 2, 6-P-F-Asp 1000 µM, S/Km 23.80952, unit from Fig. S11 axis, read-out: IC50 (IC50 versus [S]/Km plots)): 21.1 µM | IC50 (Trial 2, 6-P-F-Asp 2000 µM, S/Km 47.61905, unit from Fig. S11 axis, read-out: IC50 (IC50 versus [S]/Km plots)): 20.8 µM | IC50 (Trial 2, 6-P-F-Asp 3000 µM, S/Km 71.42857, unit from Fig. S11 axis, read-out: IC50 (IC50 versus [S]/Km plots)): 20.7 µM | K IU/K IC ratio: 0.75 ± 0.05 | Ki (from Michaelis–Menten analysis of FraB at different inhibitor concentrations, average and standard error from two measurements, read-out: K I): 12 ± 1 µM | Ki (independent trial shown in Fig. S11 panels A-L, read-out: KI from α′ vs [I] plot): 13 µM | mode of inhibition: mixed‐type uncompetitive | IC50 (single trial shown in Fig. 5, read-out: IC50, mean and standard deviation of all IC50 values in IC50 vs [S]/Km plot): 23 ± 2 µM | Ki (single trial shown in Fig. 5, read-out: KI from α′ vs [I] plot): 11 µM
